Measurements from publication PMC11111408, “Concurrent inhibition of oncogenic and wild-type RAS-GTP for cancer therapy” (Nature, 2024).
Read-outs that look alike come from different tables or passages of the source.

System: panel of 183 cancer cell lines
Assay: Cell panel of 183 cancer cell lines, viability (CTG) at Crown Bioscience
Assay type: cell-based
Settings: Homo sapiens
Excerpt: The panel consisted of cell lines with any substitution at position 12 of KRAS, NRAS or HRAS (KRAS(G12X), NRAS(G12X), HRAS(G12X)); substitutions in KRAS, NRAS or HRAS at any position other than 12, 13 and 61 (KRAS(other/VUS), NRAS(other/VUS), HRAS(other/VUS)); other oncogenic mutations in the RAS pathway (ABL1, ALK, ARAF, BRAF, CBL, EGFR, ERBB2, ERBB3, ERBB4, ERRFI1, FGFR1, FGFR2, FGFR3, FGFR4, FLT3, HRAS, IGF1R, JAK2, KIT, MAP2K1, MAP2K2, MAPK1, MET, NF1, NRAS, NTRK1, NTRK2, NTRK3, PDGFRA, PTPN11, RAC1, RAF1, RASA1, RET, RIT1, ROS1 and SOS1); and no oncogenic mutations in the RAS pathway. […] Cells were incubated for 120 h, and cell viability was determined using the CellTiter-Glo Luminescent Cell Viability Assay (CTG) (Promega, G7572) according to the manufacturer’s instructions.

Question: What does the source list for CCn1c(-c2cc(N3CCN(C4CC4)CC3)cnc2[C@H](C)OC)c2c3cc(ccc31)-c1csc(n1)C[C@H](NC(=O)[C@H]1[C@@H]3COC[C@@H]31)C(=O)N1CCC[C@H](N1)C(=O)OCC(C)(C)C2 [RMC-7977]?
Answer: EC50 (OVCAR-5, read-out: RMC-7977 EC50 (M), OVCAR5, KRAS G12V, Ovary): 1.02e-09 M; EC50 (OVCAR-8, read-out: RMC-7977 EC50 (M), OVCAR8, KRAS P121H, Ovary): > 1e-06 M; EC50 (PANC-1, read-out: RMC-7977 EC50 (M), PANC1, KRAS G12D, Pancreas): 1.66e-09 M; EC50 (PANC-03-27, read-out: RMC-7977 EC50 (M), PANC0327, KRAS G12V, Pancreas): 3.39e-10 M; EC50 (PL45, read-out: RMC-7977 EC50 (M), PL45, KRAS G12D, Pancreas): 3.31e-08 M; EC50 (PSN1, read-out: RMC-7977 EC50 (M), PSN1, KRAS G12R, Pancreas): 3.24e-09 M; EC50 (PTPN11^MUT cell lines, read-out: median EC50): 7.95e-09 M; EC50 (Panc 05.04, read-out: RMC-7977 EC50 (M), PANC0504, KRAS G12D, Pancreas): 1.62e-09 M; EC50 (Panc1005, read-out: RMC-7977 EC50 (M), PANC1005, KRAS G12D, Pancreas): 2.34e-09 M; EC50 (RAS pathway wild-type (WT) cell lines, read-out: median EC50): 7.15e-08 M; EC50 (RL95-2, read-out: RMC-7977 EC50 (M), RL952, HRAS Q61H, Uterus): 4.57e-09 M; EC50 (RT112/84, read-out: RMC-7977 EC50 (M), RT11284, FGFR fusion, Bladder): 4.87e-09 M; EC50 (SCC-9, read-out: RMC-7977 EC50 (M), SCC9, HRAS L133R, HN/Tongue): 1.23e-08 M; EC50 (SHP77, read-out: RMC-7977 EC50 (M), SHP77, KRAS G12V, Lung): > 1e-06 M; EC50 (SK-BR-3, read-out: RMC-7977 EC50 (M), SKBR3, MET amp, Breast): > 1e-06 M; EC50 (SK-CO-1, read-out: RMC-7977 EC50 (M), SKCO1, KRAS G12V, Large intestine/Colorectum): 1.05e-09 M; EC50 (SK-LMS-1, read-out: RMC-7977 EC50 (M), SKLMS1, NF1 LOF, Vulva): 6.33e-09 M; EC50 (SK-LU-1, read-out: RMC-7977 EC50 (M), SKLU1, KRAS G12D, Lung): > 1e-06 M; EC50 (SK-MEL-2, read-out: RMC-7977 EC50 (M), SKMEL2, NRAS Q61R, Skin): 9.12e-09 M; EC50 (SK-N-AS, read-out: RMC-7977 EC50 (M), SKNAS, NRAS Q61K, Brain&Nerves): 1.91e-09 M; EC50 (SK-N-FI, read-out: RMC-7977 EC50 (M), SKNFI, RAS pathway WT, Brain&Nerves): 3.82e-08 M; EC50 (SK-N-SH, read-out: RMC-7977 EC50 (M), SKNSH, NRAS Q61K, Brain&Nerves): 2.4e-07 M; EC50 (SK-OV-3, read-out: RMC-7977 EC50 (M), SKOV3, RAS pathway WT, Ovary): 5.38e-08 M; EC50 (SNU1, read-out: RMC-7977 EC50 (M), SNU1, KRAS G12D, Stomach): 7.76e-09 M; EC50 (SNU668, read-out: RMC-7977 EC50 (M), SNU668, KRAS Q61K, Stomach): 4.57e-09 M; EC50 (SNU-5, read-out: RMC-7977 EC50 (M), SNU5, MET amp, Stomach): 3.86e-09 M; EC50 (SNU-387, read-out: RMC-7977 EC50 (M), SNU387, NRAS Q61K, Liver): 5.01e-09 M; EC50 (SNU-398, read-out: RMC-7977 EC50 (M), SNU398, RAS pathway WT, Liver): > 1e-06 M; EC50 (SNU-601, read-out: RMC-7977 EC50 (M), SNU601, KRAS G12D, Stomach): 3.09e-09 M; EC50 (SU-DHL-1, read-out: RMC-7977 EC50 (M), SUDHL1, ALK fusion, Blood/lymphoma): 7.61e-08 M; EC50 (SU.86.86, read-out: RMC-7977 EC50 (M), SU8686, KRAS G12D, Pancreas): 2.45e-09 M; EC50 (SUM-159-PT, read-out: RMC-7977 EC50 (M), SUM159PT, HRAS G12D, Breast): 2.45e-09 M; EC50 (SW48, read-out: RMC-7977 EC50 (M), SW48, HRAS G161R, Large intestine/Colorectum): > 1e-06 M; EC50 (SW480, read-out: RMC-7977 EC50 (M), SW480, KRAS G12V, Large intestine/Colorectum): 2.57e-09 M; EC50 (SW626, read-out: RMC-7977 EC50 (M), SW626, KRAS G12V, Ovary): 1.82e-09 M; EC50 (SW684, read-out: RMC-7977 EC50 (M), SW684, NF1 LOF, Soft tissue): 3.68e-08 M; EC50 (SW756, read-out: RMC-7977 EC50 (M), SW756, KRAS G12C, Ovary): 1.17e-08 M; EC50 (SW780, read-out: RMC-7977 EC50 (M), SW780, FGFR fusion, Bladder): 5e-09 M; EC50 (SW837, read-out: RMC-7977 EC50 (M), SW837, KRAS G12C, Large intestine/Colorectum): 1.7e-09 M; EC50 (SW900, read-out: RMC-7977 EC50 (M), SW900, KRAS G12V, Lung): 4.07e-09 M; EC50 (SW948, read-out: RMC-7977 EC50 (M), SW948, KRAS Q61L, Large intestine/Colorectum): 1.45e-08 M; EC50 (SW 1116, read-out: RMC-7977 EC50 (M), SW1116, KRAS G12A, Large intestine/Colorectum): 1.82e-08 M; EC50 (SW1271, read-out: RMC-7977 EC50 (M), SW1271, NRAS Q61R, Lung): 2.19e-09 M; EC50 (SW1463, read-out: RMC-7977 EC50 (M), SW1463, KRAS G12C, Large intestine/Colorectum): 7.59e-09 M; EC50 (SW1573, read-out: RMC-7977 EC50 (M), SW1573, KRAS G12C, Lung): > 1e-06 M; EC50 (SW1783, read-out: RMC-7977 EC50 (M), SW1783, RAS pathway WT, Brain&Nerves): 4.53e-08 M; EC50 (SW1990, read-out: RMC-7977 EC50 (M), SW1990, KRAS G12D, Pancreas): 1.02e-09 M; EC50 (SW-403, read-out: RMC-7977 EC50 (M), SW403, KRAS G12V, Large intestine/Colorectum): 1.15e-09 M; EC50 (SW-620, read-out: RMC-7977 EC50 (M), SW620, KRAS G12V, Large intestine/Colorectum): 9.55e-10 M; EC50 (TOV21G, read-out: RMC-7977 EC50 (M), TOV21G, KRAS G13C, Ovary): 1.41e-08 M; EC50 (U-87 MG, read-out: RMC-7977 EC50 (M), U87MG, NF1 LOF, Brain&Nerves): 2.81e-08 M; EC50 (U-118-MG, read-out: RMC-7977 EC50 (M), U118MG, ROS1 fusion, GBM): 5.95e-08 M; EC50 (UMUC3, read-out: RMC-7977 EC50 (M), UMUC3, KRAS G12C, Bladder): 4.17e-10 M; EC50 (cell lines with NF1 loss of function and PTPN11 mutations, read-out: median EC50): 2.81e-08 M; EC50 (cell lines with mutationally activated RTKs (RTK^MUT/fusion), read-out: median EC50): 6.14e-09 M; EC50 (cell lines with wild-type MET gene amplification (MET^AMP), read-out: median EC50): 6.61e-09 M; EC50 (non-G12 mutant KRAS cell lines, read-out: median EC50): 2.51e-08 M; EC50 (read-out: RMC-7977 EC50 (M), AGS, KRAS G12D, Lung): 1.15e-09 M; EC50 (read-out: RMC-7977 EC50 (M), ASH3, NRAS Q61R, HN/Thyroid): 9.77e-09 M; EC50 (read-out: RMC-7977 EC50 (M), HCC2279, EGFR mut, Lung): 4.52e-09 M
